Source: patent publication US7320981B2, “Variolin derivatives as anti-cancer agents” (Pharma Mar, S.A., priority 2000, dated 2008)
Where two headings read alike, the source gives them in different places.

Assays:
[1] = tested on: MEL-28; test: SRB cell growth/viability assay, MEL-28; conditions: for GI50 / CC50: Homo sapiens, SK-MEL-28, 48 h; for GI50: read-out: GI50 (50% growth inhibition); for CC50: read-out: LC50 (50% net cell killing, cytotoxic effect)
From the text: (§1) A colorimetric type of assay, using sulforhodamine B (SRB) reaction has been adapted for a quantitative measurement of cell growth and viability: see Skehan, P. A. et al. J. Natl. Cancer Inst., 1990, 82, 1107-1112. This form of the assay employs 96 well cell culture microplates of 9 mm diameter (Faircloth, G. T.; Stewart, D. and Clement, J. J., Journal of Tissue and Culture Methods, 1983, 11, 201-205; Mosmann, T. Journal of Immunological Methods, 1983, 65, 55-63.).
(§2) Most of the cell lines are obtained from American Type Culture Collection (ATCC) derived from different human cancer types. Cells are maintained in RPMI 1640 10% FBS, supplemented with 0.1 g/l penicillin and 0.1 g/l streptomycin sulfate and then incubated at 37° C., 5% CO2 and 98% humidity. For the experiments, cells were harvested from subconfluent cultures using trypsin and resuspended in fresh medium before plating.
(§3) Cells are seeded in 96 well microtiter plates, at 5×10^3 cells per well in aliquots of 195 μl medium, and they are allowed to attach to the plate surface by growing in drug free medium for 18 hours. Afterward, samples are in aliquots of 5 pi in a ranging from 10 to 10-8 μg/ml dissolved in DMSO/EtOH (0.2% in PS buffer). After 48 hours exposure, the antitumour effect are measured by the SRB methodology: cells are fixed by adding 50 μl of cold 50% (w/v) trichloroacetic acid (TCA) and incubating for 60 minutes at 4° C. Plates are washed with deionized water and dried. 100 μl of SRB solution (0.4% w/v in 1% acetic acid) is added to each microtiter well and incubated for 10 minutes at room temperature. Unbound SRB is removed by washing with 1% acetic acid. Plates are air-dried and bound stain is solubilized with Tris buffer. Optical densities are read on an automated spectrophotometric plate reader at a single wavelength of 490 nm.
(§4) The values for mean +/− SD of data from triplicate wells are calculated Some parameters for cellular responses can be calculated: […], TGI=total growth inhibition (cytostatic effect) and LC=cell killing (cytotoxic effect).

[2] = tested on: HT-29; test: SRB cell growth/viability assay, HT-29; conditions: for GI50 / CC50: Homo sapiens, HT-29, 48 h
From the text: as §1, §2, §3, §4

[3] = tested on: A-549; test: SRB cell growth/viability assay, A-549; conditions: for GI50 / CC50: Homo sapiens, A549, 48 h
From the text: as §1, §2, §3, §4

[4] = tested on: A498; test: SRB cell growth/viability assay, A498; conditions: for GI50 / CC50: Homo sapiens, A498, 48 h; for GI50: read-out: GI50 (50% growth inhibition); for CC50: read-out: LC50 (50% net cell killing, cytotoxic effect)
From the text: as §1, §2, §3, §4

[5] = tested on: MB-231; test: SRB cell growth/viability assay, MB-231; conditions: for GI50 / CC50: Homo sapiens; for GI50: read-out: GI50 (50% growth inhibition); for CC50: read-out: LC50 (50% net cell killing, cytotoxic effect)
From the text: as §1, §2, §3, §4

[6] = tested on: SW-620; test: SRB cell growth/viability assay, SW-620; conditions: for GI50 / CC50: Homo sapiens, SW-620, 48 h; for GI50: read-out: GI50 (50% growth inhibition); for CC50: read-out: LC50 (50% net cell killing, cytotoxic effect)
From the text: as §1, §2, §3, §4

[7] = tested on: MCF-7; test: SRB cell growth/viability assay, MCF-7; conditions: for GI50 / CC50: Homo sapiens, MCF7, 48 h; for GI50: read-out: GI50 (50% growth inhibition); for CC50: read-out: LC50 (50% net cell killing, cytotoxic effect)
From the text: as §1, §2, §3, §4

[8] = tested on: DU-145; test: SRB cell growth/viability assay, DU-145; conditions: for GI50 / CC50: Homo sapiens, DU-145, 48 h; for GI50: read-out: GI50 (50% growth inhibition); for CC50: read-out: LC50 (50% net cell killing, cytotoxic effect)
From the text: as §1, §2, §3, §4

[9] = tested on: OVCAR-3; test: cells; format: cell-based
From the text: Plates are washed with deionized water and dried.

[10] = read-out: GI50 (50% growth inhibition)
[11] = read-out: LC50 (50% net cell killing, cytotoxic effect)

Which results are given for `Nc1nccc(-c2c3c(O)ccnc3n3c(N)nccc23)n1` [Compound 1, Variolin B]?
TGI (total growth inhibition, cytostatic effect) ([1]; 48 h): 1.E−06 M; GI50 [1]: 700 nM; CC50 [1]: 2000 nM; TGI (total growth inhibition, cytostatic effect) ([2]; 48 h): 1.E−06 M; GI50 [2, 10]: 700 nM; GI50 ([2]; read-out: HT-29 GI50): 1000 nM; CC50 ([2]; read-out: HT-29 LC50): > 170000 nM; CC50 [2, 11]: 3000 nM; HT-29 TGI ([2]; Table 2, HT-29, 48 hours exposure, SRB): 1.7 10^−5 M; TGI (total growth inhibition, cytostatic effect) ([3]; 48 h): 1.E−06 M; GI50 ([3]; read-out: A-549 GI50): 170 nM; CC50 ([3]; read-out: A-549 LC50): 170000 nM; GI50 [3, 10]: 700 nM; CC50 [3, 11]: 3000 nM; A-549 TGI ([3]; Table 2, A-549, 48 hours exposure, SRB): 6.8 10^−7 M; TGI (total growth inhibition, cytostatic effect) ([4]; 48 h): 3.E−07 M; GI50 [4]: 100 nM; CC50 [4]: 2000 nM; TGI (total growth inhibition, cytostatic effect) ([5]; 48 h): 1.E−06 M; GI50 ([5]; 48 h): 300 nM; CC50 ([5]; 48 h): 3000 nM; TGI (total growth inhibition, cytostatic effect) ([6]; 48 h): 3.E−07 M; GI50 [6]: 100 nM; CC50 [6]: 2000 nM; TGI (total growth inhibition, cytostatic effect) ([7]; 48 h): 2.E−06 M; GI50 [7]: 700 nM; CC50 [7]: 2000 nM; TGI (total growth inhibition, cytostatic effect) ([8]; 48 h): 3.E−07 M; GI50 [8]: 100 nM; CC50 [8]: 1000 nM

Which results are given for `Nc1nccc(-c2c3cccnc3n3c(N)nccc23)n1` [Compound 4, deoxyvariolin B]?
GI50 [1]: 70 nM; CC50 [1]: 300 nM; TGI (total growth inhibition, cytostatic effect) ([1]; Table 1, melanoma cell line MEL-28, 48 hours exposure, SRB): 1.E−07 M; GI50 [2, 10]: 70 nM; CC50 [2, 11]: 10000 nM; TGI (total growth inhibition, cytostatic effect) ([2]; Table 1, colon cell line HT-29, 48 hours exposure, SRB): 2.E−07 M; GI50 [3, 10]: 100 nM; CC50 [3, 11]: 400 nM; TGI (total growth inhibition, cytostatic effect) ([3]; Table 1, NSCL cell line A-549, 48 hours exposure, SRB): 2.E−07 M; GI50 [4]: 70 nM; CC50 [4]: 700 nM; TGI (total growth inhibition, cytostatic effect) ([4]; Table 1, kidney cell line A498, 48 hours exposure, SRB): 2.E−07 M; CC50 ([9]; Homo sapiens, OVCAR-3, 48 h, read-out: LC50 (50% net cell killing, cytotoxic effect)): 400 nM; GI50 ([9]; Homo sapiens, Table 1, ovary cell line OVCAR-3, 48 hours exposure, SRB, read-out: GI50 (50% growth inhibition)): 100 nM; TGI (total growth inhibition, cytostatic effect) ([9]; Table 1, ovary cell line OVCAR-3, 48 hours exposure, SRB): 3.E−07 M; GI50 ([5]; 48 h): 70 nM; CC50 ([5]; 48 h): 30000 nM; TGI (total growth inhibition, cytostatic effect) ([5]; Table 1, breast cell line MB-231, 48 hours exposure, SRB): 3.E−07 M; GI50 [6]: 70 nM; CC50 [6]: 10000 nM; TGI (total growth inhibition, cytostatic effect) ([6]; Table 1, colon cell line SW-620, 48 hours exposure, SRB): 3.E−07 M; GI50 [7]: 100 nM; CC50 [7]: 4000 nM; TGI (total growth inhibition, cytostatic effect) ([7]; Table 1, breast cell line MCF-7, 48 hours exposure, SRB): 3.E−07 M; GI50 [8]: 100 nM; CC50 [8]: 7000 nM; TGI (total growth inhibition, cytostatic effect) ([8]; Table 1, prostate cell line DU-145, 48 hours exposure, SRB): 3.E−07 M

With `CS(=O)(=O)c1nccc(-c2c3cccnc3n3c(N)nccc23)n1` [Compound 6, sulfonyldeoxyvariolin] as the molecule, how does the GI50 ([2]; read-out: HT-29 GI50) read?
The GI50 was 29000 nM.

What about the CC50 ([2]; read-out: HT-29 LC50) of the same molecule?
The CC50 was greater than 150000 nM.

And the GI50 ([3]; read-out: A-549 GI50)?
The GI50 was 4400 nM.

And the CC50 ([3]; read-out: A-549 LC50)?
Its CC50 is greater than 150000 nM.

How did the GI50 ([2]; read-out: HT-29 GI50) turn out when `CSc1nccc(-c2c3cccnc3n3c(SC)nccc23)n1` [Compound 19] was run?
The GI50 was 5900 nM.

What about the CC50 ([2]; read-out: HT-29 LC50) of the same molecule?
The CC50 was 29000 nM.

What about the GI50 ([3]; read-out: A-549 GI50) of the same molecule?
Its GI50 is 5900 nM.

And the CC50 ([3]; read-out: A-549 LC50)?
The CC50 was 29000 nM.

Which results are given for `C[S+]([O-])c1nccc(-c2c3cccnc3n3c(N)nccc23)n1` (centres unmarked) [Compound 22, sulfinyldeoxyvariolin]?
GI50 ([2]; read-out: HT-29 GI50): 920 nM; CC50 ([2]; read-out: HT-29 LC50): > 150000 nM; GI50 ([3]; read-out: A-549 GI50): 1200 nM; CC50 ([3]; read-out: A-549 LC50): 92000 nM

With `CC(=O)N(C(C)=O)c1nccc(-c2c3cccnc3n3c(N)nccc23)n1` [Compound 23a, N′-bisacetyldeoxyvariolin] as the molecule, how does the GI50 ([2]; read-out: HT-29 GI50) read?
Its GI50 is 140 nM.

What about the CC50 ([2]; read-out: HT-29 LC50) of the same molecule?
The CC50 was 2800 nM.

What about the GI50 ([3]; read-out: A-549 GI50) of the same molecule?
The GI50 was 280 nM.

What about the CC50 ([3]; read-out: A-549 LC50) of the same molecule?
The CC50 was 2800 nM.

Which results are given for `CC(=O)Nc1nccc2c(-c3ccnc(N(C(C)=O)C(C)=O)n3)c3cccnc3n12` [Compound 23b, N′-bisacetyl-N-acetyldeoxyvariolin]?
GI50 ([2]; read-out: HT-29 GI50): 100 nM; CC50 ([2]; read-out: HT-29 LC50): 2500 nM; GI50 ([3]; read-out: A-549 GI50): 740 nM; CC50 ([3]; read-out: A-549 LC50): 7400 nM

For `CC(=O)N(C(C)=O)c1nccc(-c2c3cccnc3n3c(N(C(C)=O)C(C)=O)nccc23)n1` [Compound 23c, N′-bisacetyl-N-bisacetyldeoxyvariolin], which GI50 ([2]; read-out: HT-29 GI50) is on record?
Its GI50 is 1100 nM.

What about the CC50 ([2]; read-out: HT-29 LC50) of the same molecule?
The CC50 was 18000 nM.

What about the GI50 ([3]; read-out: A-549 GI50) of the same molecule?
The GI50 was 2200 nM.

And the CC50 ([3]; read-out: A-549 LC50)?
The CC50 was 22000 nM.

Which results are given for `CC(=O)Nc1nccc(-c2c3cccnc3n3c(N)nccc23)n1` [Compound 23d, N′-acetyldeoxyvariolin]?
GI50 ([2]; read-out: HT-29 GI50): 630 nM; CC50 ([2]; read-out: HT-29 LC50): 3200 nM; GI50 ([3]; read-out: A-549 GI50): 630 nM; CC50 ([3]; read-out: A-549 LC50): 3200 nM

How did the GI50 ([2]; read-out: HT-29 GI50) turn out when `CC(=O)Nc1nccc(-c2c3cccnc3n3c(NC(C)=O)nccc23)n1` [Compound 23e, N′-acetyl-N-acetyldeoxyvariolin] was run?
The GI50 was 5500 nM.

What about the CC50 ([2]; read-out: HT-29 LC50) of the same molecule?
Its CC50 is greater than 28000 nM.

And the GI50 ([3]; read-out: A-549 GI50)?
The GI50 was 2200 nM.

And the CC50 ([3]; read-out: A-549 LC50)?
Its CC50 is 28000 nM.
